Source: US8697687B2, “Treating diseases mediated by blockade of the epithelial sodium channel with pyrazine-2-carboxamide derivatives” (Novartis AG, priority 2007, dated 2014)

Molecular target: T1, epithelial sodium channel (ENaC) (Homo sapiens, UniProt P37088+P51168+P51170)
T1 construct: host or cells: primary Human Bronchial Epithelial cells (HBECs), air-liquid interface culture
T1 sequence (P37088 1-669): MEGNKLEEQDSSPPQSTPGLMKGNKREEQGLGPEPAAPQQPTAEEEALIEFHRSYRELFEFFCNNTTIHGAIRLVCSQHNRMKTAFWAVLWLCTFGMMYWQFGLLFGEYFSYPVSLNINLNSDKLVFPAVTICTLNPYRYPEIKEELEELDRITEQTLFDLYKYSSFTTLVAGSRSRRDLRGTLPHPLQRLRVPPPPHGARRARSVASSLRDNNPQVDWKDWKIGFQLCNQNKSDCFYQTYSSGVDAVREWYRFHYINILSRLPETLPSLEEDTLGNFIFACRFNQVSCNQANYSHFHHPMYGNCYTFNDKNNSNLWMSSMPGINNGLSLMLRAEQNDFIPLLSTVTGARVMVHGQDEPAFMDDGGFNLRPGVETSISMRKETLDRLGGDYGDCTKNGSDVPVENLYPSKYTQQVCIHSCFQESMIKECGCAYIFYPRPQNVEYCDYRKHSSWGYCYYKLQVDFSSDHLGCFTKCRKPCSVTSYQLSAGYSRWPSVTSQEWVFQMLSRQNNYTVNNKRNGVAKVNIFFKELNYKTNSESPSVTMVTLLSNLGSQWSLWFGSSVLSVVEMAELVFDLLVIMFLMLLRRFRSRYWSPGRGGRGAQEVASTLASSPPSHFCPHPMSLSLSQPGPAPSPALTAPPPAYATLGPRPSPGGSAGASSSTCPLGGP
T1 sequence (P51168 1-640): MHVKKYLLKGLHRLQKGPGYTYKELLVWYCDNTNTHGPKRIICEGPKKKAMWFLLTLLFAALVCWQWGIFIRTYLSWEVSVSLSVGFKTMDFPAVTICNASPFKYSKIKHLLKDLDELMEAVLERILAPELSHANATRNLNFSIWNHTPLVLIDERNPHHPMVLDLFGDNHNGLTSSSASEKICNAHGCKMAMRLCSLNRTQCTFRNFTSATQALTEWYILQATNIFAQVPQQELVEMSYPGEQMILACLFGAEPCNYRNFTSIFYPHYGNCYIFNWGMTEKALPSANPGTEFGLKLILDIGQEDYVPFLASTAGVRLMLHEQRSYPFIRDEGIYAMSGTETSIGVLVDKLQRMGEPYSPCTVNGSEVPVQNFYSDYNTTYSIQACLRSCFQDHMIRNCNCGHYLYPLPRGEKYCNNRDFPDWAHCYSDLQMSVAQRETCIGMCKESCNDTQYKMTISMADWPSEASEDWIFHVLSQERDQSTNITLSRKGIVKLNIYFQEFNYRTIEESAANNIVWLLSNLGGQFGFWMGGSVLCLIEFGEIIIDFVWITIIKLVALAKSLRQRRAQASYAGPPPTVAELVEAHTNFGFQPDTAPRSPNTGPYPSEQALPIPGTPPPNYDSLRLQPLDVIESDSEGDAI
T1 sequence (P51170 1-649): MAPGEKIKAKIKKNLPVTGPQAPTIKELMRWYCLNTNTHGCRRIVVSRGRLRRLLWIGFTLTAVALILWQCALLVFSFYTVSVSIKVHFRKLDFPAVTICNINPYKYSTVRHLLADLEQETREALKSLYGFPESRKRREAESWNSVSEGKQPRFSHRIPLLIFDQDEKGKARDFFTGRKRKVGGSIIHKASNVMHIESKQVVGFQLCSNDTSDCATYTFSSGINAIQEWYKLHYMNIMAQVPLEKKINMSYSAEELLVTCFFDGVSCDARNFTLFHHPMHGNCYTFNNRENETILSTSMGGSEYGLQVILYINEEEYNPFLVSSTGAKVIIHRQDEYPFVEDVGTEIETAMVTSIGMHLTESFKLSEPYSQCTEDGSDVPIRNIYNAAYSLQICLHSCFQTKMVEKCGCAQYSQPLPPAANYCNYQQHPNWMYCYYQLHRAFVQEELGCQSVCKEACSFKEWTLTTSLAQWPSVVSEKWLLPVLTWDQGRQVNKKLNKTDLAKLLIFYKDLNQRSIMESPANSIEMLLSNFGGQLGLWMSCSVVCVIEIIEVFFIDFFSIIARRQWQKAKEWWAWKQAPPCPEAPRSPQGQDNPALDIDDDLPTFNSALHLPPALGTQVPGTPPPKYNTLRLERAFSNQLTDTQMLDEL
Assay: Short circuit current (ISC) measurements in Human Bronchial Epithelial cells, inhibition of amiloride-sensitive ISC
Type: cell-based
Conditions: inhibition of the amiloride-sensitive ISC; Human Bronchial Epithelial cells (HBECs) at air-liquid interface; compound added to apical chamber; read-out: IC50
Experimental: Compounds of formula (I) and their pharmaceutically acceptable salts, hereinafter referred to alternatively as “agents of the invention”, are useful as pharmaceuticals. In particular, the compounds have good ENaC blocker activity and may be tested in the following assays.
Human Bronchial Epithelial cells (HBECs) (Cambrex) were cultured under air-liquid interface conditions to provide a well differentiated mucociliary phenotype.
HBECs were cultured using a modification of the method described by Gray and colleagues (Gray et al., 1996). Cells were seeded in plastic T-162 flasks and were grown in bronchial epithelial cell growth medium (BEGM; Cambrex) supplemented with bovine pituitary extract (52 μg/mL), hydrocortisone (0.5 μg/mL), human recombinant epidermal growth factor (0.5 ng/mL), epinephrine (0.5 μg/mL), transferrin (10 μg/mL), insulin (5 μg/mL), retinoic acid (0.1 μg/mL), triiodothyronine ([…]), gentamycin (50 μg/mL) and amphotericin B (50 ng/mL). Medium was changed every 48 hours until cells were 90% confluent. Cells were then passaged and seeded (8.25×10^5 cells/insert) on polycarbonate Snapwell inserts (Costar) in differentiation media containing 50% DMEM in BEGM with the same supplements as above but without triiodothyronine and a final retinoic acid concentration of 50 nM (all-trans retinoic acid). Cells were maintained submerged for the first 7 days in culture, after which time they were exposed to an apical air interface for the remainder of the culture period. At this time, media was changed to DMEM:F12 media containing 2% v/v Ultroser G for the remainder of culture. Amphotericin B was removed from all media 3 feeds prior to use in the Using Chambers. Cells were used between days 7 and 21 after establishment of the apical-air interface. At all stages of culture, cells were maintained at 37° C. in 5% CO2 in an air incubator.
Short Circuit Current (ISC) Measurements
Snapwell inserts were mounted in Vertical Diffusion Chambers (Costar) and were bathed with continuously gassed Ringer solution (5% CO2 in O2; pH 7.4) maintained at 37° C. containing (in mM): 120 NaCl, 25 NaHCO3, 3.3 KH2PO4, 0.8 K2HPO4, 1.2 CaCl2, 1.2 MgCl2, and 10 glucose. The solution osmolarity was between 280 and 300 mOsmol/kg H2O for all physiological salt solutions used. Cells were voltage clamped to 0 mV (model EVC4000; WPI). RT was measured by applying a 1- or 2-mV pulse at 30-s intervals and calculating RT by Ohm's law. Data were recorded using a PowerLab workstation (ADInstruments).
Test compounds were prepared as a 10 mM stock solution in DMSO (95%). Serial 3-fold dilutions were freshly prepared in an appropriate vehicle (distilled H2O or Ringers solution). The initial concentration was added to the apical chamber as a 1000× concentrate in 5 μL, resulting in a final 1× concentration the 5 mL volume of the Ussing chamber. Subsequent additions of compound were added in a 3.3 μL volume of the 1000× serially diluted stock solution. At the completion of the concentration-response experiment, amiloride (10 μM) was added into the apical chamber to enable the total amiloride-sensitive current to be measured. An amiloride control IC50 was established at the start of each experiment.
Results are expressed as the mean % inhibition of the amiloride-sensitive ISC. Concentration-response curves were plotted and IC50 values generated using GraphPad Prism 3.02. Cell inserts were typically run in duplicate and the IC50 calculated on the mean % inhibition data.

| IC50 [µM] | SMILES |
| --- | --- |
| 0.0055 | Cc1ccc(S(=O)(=O)N[C@@H](Cc2ccccc2)C(=O)N2CCC3(CC2)CN/C(=N\C(=O)c2nc(Cl)c(N)nc2N)N3)cc1 [Example 39, 3,5-Diamino-6-chloro-pyrazine-2-carboxylic acid [8-[(S)-3-phenyl-2-(toluene-4-sulfonylamino)-propionyl]-1,3,8-triaza-spiro[4.5]dec-(2E)-ylidene]-amide] |
| 0.0055 | Nc1nc(N)c(C(=O)/N=C2\NCC3(CCN(C(=O)c4cn(S(=O)(=O)c5ccccc5)c5ccccc45)CC3)N2)nc1Cl [Example 40, 3,5-Diamino-6-chloro-pyrazine-2-carboxylic acid [8-(1-benzenesulfonyl-1H-indole-3-carbonyl)-1,3,8-triaza-spiro[4.5]dec-(2E)-ylidene]-amide] |
| 0.0095 | CC(C)OCCCNS(=O)(=O)c1cccc(C(=O)N2CCC3(CC2)CN/C(=N\C(=O)c2nc(Cl)c(N)nc2N)N3)c1 [Example 41, 3,5-Diamino-6-chloro-pyrazine-2-carboxylic acid [8-[3-(3-isopropoxy-propylsulfamoyl)-benzoyl]-1,3,8-triaza-spiro[4.5]dec-(2E)-ylidene]-amide] |
| 0.011 | Nc1nc(N)c(C(=O)/N=C2\NCC3(CCN(C(=O)Cc4nnc(-c5ccccc5)[nH]4)CC3)N2)nc1Cl [Example 42, 3,5-Diamino-6-chloro-pyrazine-2-carboxylic acid [8-[2-(5-phenyl-4H-[1,2,4]triazol-3-yl)-acetyl]-1,3,8-triaza-spiro[4.5]dec-(2E)-ylidene]-amide] |
| 0.013 | CC(C)NC(=O)Nc1cccc(C(=O)N2CCC3(CC2)CN/C(=N\C(=O)c2nc(Cl)c(N)nc2N)N3)c1 [Example 43, 3,5-Diamino-6-chloro-pyrazine-2-carboxylic acid [8-[3-(3-isopropyl-ureido)-benzoyl]-1,3,8-triaza-spiro[4.5]dec-(2E)-ylidene]-amide] |
| 0.0295 | Nc1nc(N)c(C(=O)/N=C2\NCC3(CCN(C(=O)Cc4csc5ccccc45)CC3)N2)nc1Cl [Example 44, 3,5-Diamino-6-chloro-pyrazine-2-carboxylic acid [8-(2-Benzo[b]thiophen-3-yl-acetyl)-1,3,8-triaza-spiro[4.5]dec-(2E)-ylidene]-Amide] |
| 0.0426 | Nc1nc(N)c(C(=O)/N=C2\NCC3(CCN(C(=O)C4CC(=O)N(CCCn5cccc5)C4)CC3)N2)nc1Cl (stereo not drawn) [Example 45, 3,5-Diamino-6-chloro-pyrazine-2-carboxylic acid [8-[5-oxo-1-(3-pyrrol-1-yl-propyl)-pyrrolidine-3-carbonyl]-1,3,8-triaza-spiro[4.5]dec-(2E)-ylidene]-amide] |

Further lines, the compound ahead of its results:

| SMILES | IC50 [µM] |
| --- | --- |
| Nc1nc(N)c(C(=O)/N=C2/NC[C@H](CCCCNC(=O)OCc3ccccc3)N2)nc1Cl [Example 5, (4-{(S)-2-[(E)-3,5-Diamino-6-chloro-pyrazine-2-carbonylimino]-imidazolidin-4-yl}-butyl)-carbamic acid benzyl ester] | 0.065 |
| Nc1nc(N)c(C(=O)N=C2NC3CCCCC3N2)nc1Cl (stereo not drawn) [Example 11, 3,5-Diamino-6-chloro-pyrazine-2-carboxylic acid (octahydro-benzoimidazol-2-ylidene)-amide] | 1.69 |
| Nc1nc(N)c(C(=O)/N=C2/NC[C@@H](CCCc3ccc(OC[C@@H](O)CO)cc3)N2)nc1Cl [Example 19, 3,5-Diamino-6-chloro-pyrazine-2-carboxylic acid [(R)-4-{3-[4-((S)-2,3-dihydroxy-propoxy)-phenyl]-propyl}-imidazolidin-(2Z)-ylidene]-amide] | 0.018 |
| Nc1nc(N)c(C(=O)/N=C2/NC[C@@H](CCCc3ccc(OCC(=O)N4CCOCC4)cc3)N2)nc1Cl [Example 23, 3,5-Diamino-6-chloro-pyrazine-2-carboxylic acid [(R)-4-{3-[4-(2-morpholin-4-yl-2-oxo-ethoxy)-phenyl]-propyl}-imidazolidin-(2Z)-ylidene]-amide] | 0.0335 |
| CC(C)(CCOCc1ccccc1)C[C@H]1CN/C(=N/C(=O)c2nc(Cl)c(N)nc2N)N1 [Example 26] | 0.011 |
| Nc1nc(N)c(C(=O)/N=C2\NC[C@H](CCCNC(=O)NCc3ccccc3)N2)nc1Cl [Example 32, 3,5-Diamino-6-chloro-pyrazine-2-carboxylic acid [(S)-4-[3-(3-benzyl-ureido)-propyl]-imidazolidin-(2E)-ylidene]-amide] | 0.018 |
| Nc1nc(N)c(C(=O)/N=C2\NC[C@H](CCCNC(=O)Cc3ccccc3)N2)nc1Cl [Example 34, 3,5-Diamino-6-chloro-pyrazine-2-carboxylic acid [(S)-4-(3-phenylacetylamino-propyl)-imidazolidin-(2E)-ylidene]-amide] | 0.095 |
| Nc1nc(N)c(C(=O)/N=C2\NC[C@H](CCCCNS(=O)(=O)Cc3ccccc3)N2)nc1Cl [Example 35, 3,5-Diamino-6-chloro-pyrazine-2-carboxylic acid [(S)-4-(4-phenylmethanesulfonylamino-butyl)-imidazolidin-(2E)-ylidene]-amide] | 0.031 |
